Test results from PMC7045321 (ACS Omega, 2020).

Assays:
S. aureus [1] = assay: Time-kill kinetics in MHB; format: cell-based, Staphylococcus aureus; settings: 4 × MIC in MHB
S. aureus [2] = assay: Time-kill kinetics in MHB with 10% serum; format: cell-based, Staphylococcus aureus; settings: 4 × MIC in MHB with 10% fetal bovine serum (FBS), 37 °C

Q: With `CN[C@H](CC(C)C)C(=O)N[C@H]1C(=O)N[C@@H](CC(N)=O)C(=O)N[C@H]2C(=O)N[C@H]3C(=O)N[C@H](C(=O)N[C@H](C(=O)O)c4cc(O)cc(O)c4-c4cc3ccc4O)[C@H](O)c3ccc(c(Cl)c3)Oc3cc2cc(c3O[C@@H]2O[C@H](CO)[C@@H](O)[C@H](O)[C@H]2O[C@H]2C[C@](C)(N)[C@H](O)[C@H](C)O2)Oc2ccc(cc2Cl)[C@H]1O` [vancomycin] as the compound, how does the “log reduction after 24 h” value (S. aureus [1]; 37 °C) read?
A: 3 log

Q: And the “time to complete eradication of viable S. aureus cells” value (S. aureus [1]; ~10^5 CFU mL^–1, 37 °C, followed for 24 h)?
A: not complete eradication

Q: What about the “log reduction in cell viability after 3 h exposure” value (S. aureus [2]) of the same compound?
A: 1 log
